For one assay, the system named is H5N1 influenza virus. As to conditions: mouse, in vivo; cited from earlier work.
Another assay relates to influenza virus. The following applies: cited from earlier work.
Assay [1] has as its system PR/8 virus. The assay is described as follows: Splenocyte IFN-γ ELISpot assay, PR/8 vaccine (Example 8). The assay is classed as in vivo, Balb/C mice. As to conditions: day 15 post-vaccination; inactivated PR/8; EB 50 μM or 200 μM.
Assay [2] concerns PR/8 virus. The assay is classed as in vivo, Balb/C mice. The following applies: suboptimal dose PR/8 vaccine.
Assay [3] concerns PR/8 virus. As to the kind of experiment: Influenza-specific neutralizing antibodies in sera, suboptimal dose PR/8 vaccine (Example 6). It counts as in vivo, Balb/C mice. The following applies: day 15 post-vaccination; pooled serum; values <40 negative.
In assay [4] the test system is VN/1203 virus. It counts as in vivo, Balb/C mice. The following applies: day 15 and 28 post-vaccination; inactivated VN/1203; EB 200 μM.
Assay [5] concerns VN/1203. It counts as in vivo, Balb/C mice. As to conditions: suboptimal dose vaccine.
Assay [6] deals with PR/8 virus. The assay is described as follows: Sedimentation density profiles (density gradient ultracentrifugation) of peptide-treated virus. Also noted: species or system A/PuertoRico/8/34 (PR/8, H1N1). The following applies: EB peptide-treated samples (10 μM, 30 μM).
A further assay concerns RAW 264.7 macrophages. The assay is described as follows: Association of FITC-labeled virus with macrophages by flow cytometry. It counts as cell-based. As to conditions: virus treated with 10 μM EB; compared to 0 μM. (In general: In flow cytometry, cells or beads pass a laser one at a time.)
Assay [7] has as its system VN/1203. It counts as in vivo, Balb/C mice.
In assay [8] the test system is VN/1203. The assay is described as follows: Virus specific IgG ELISA after vaccination with inactivated VN/1203 (Example 3). The assay is classed as in vivo, Balb/C mice. As to conditions: 28 days post-vaccination; EB at all concentrations (10 μM, 50 μM, 0.5 mM, 1 mM); i.m., boost day 15. In general terms: In an ELISA, binding on a coated surface is turned into a signal by an enzyme label.

Assay [9] relates to VN/1203 virus. As to the kind of experiment: Microneutralization assay of sera, suboptimal dose VN/1203 vaccine (Example 5). Also noted: species or system Balb/C mice. The following applies: mouse, in vivo.
Assay [10] deals with VN/1203. As to the kind of experiment: Influenza-specific total IgG, IgG1, IgG2 ELISA after suboptimal dose VN/1203 vaccine (Example 5). Also noted: species or system Balb/C mice. The following applies: mouse, in vivo.
The test system of the next assay is influenza viruses. The following applies: in vitro; cited from earlier work.

Like-named read-outs stand apart in the source and are kept apart here.

As for RRKKAAVALLPAVLLALLAP [EB], the “clinical signs of H5N1 influenza virus infection” value in the assay on H5N1 influenza virus is listed as “prevented clinical signs”. Also, in the assay with H5N1 influenza virus, the survival result is on record as “increased survival”. Also, in the assay on influenza virus, the “influenza virus attachment to cells” value is reported as “inhibited”. Besides, the “IFN-γ levels (IFN-γ secreting splenocytes)” value in the assay on PR/8 virus [1] and in the assay on VN/1203 virus [4] was “increases” throughout. For the same sequence, the survival rate in the assay on PR/8 virus [2] (EB 50 μM) is listed as 100%; in the assay with PR/8 virus [2] (EB 200 μM) it was 100%; in the assay on VN/1203 [5] (EB 50 μM), more than 60%. Moreover, the “influenza-specific neutralizing antibody titers” value in the assay with PR/8 virus [3] is “negative”. The weight loss result in the assay with VN/1203 [5] (200 μM EB, no boost) was “little to no weight loss”; in the assay with VN/1203 [5] (200 μM EB, with boost) it was “little to no weight loss”. For the same sequence, the “score for clinical signs of infection (0-3)” value in the assay on VN/1203 [5] (200 μM EB, without boost) was 1; in the assay on VN/1203 [5] (peptide 200 μM, with boost), 0. Moreover, the “HA activity as compared to virus alone” value in the assay with PR/8 virus [6] was “considerably lower”. The “shift in macrophage association peak of FITC-PR/8” value with RAW 264.7 macrophages is “minimal shift”. Besides, in the assay with VN/1203 [7] ([…], EB 10 μM, 50 μM, 0.5 mM or 1 mM, alum 0.5 mg/ml), the “weight change compared to day 0 of challenge” value is on record as “weight increase”. The “infectious virus in lungs (TCID50 on MDCK cells)” value is “no detectable infectious virus” with VN/1203 [7] ([…], VN/1203 pretreated with 50 μM or greater amounts of EB); “no detectable infectious virus” in the assay on VN/1203 [7] (day 10, any of the groups vaccinated with inactivated VN/1203 and EB). In the assay on VN/1203 [8], the “virus specific IgG titers compared to inactivated virus alone or alum adjuvanated vaccine” value was “increased”. For the same sequence, the “virus neutralizing antibody titers (microneutralization)” value with VN/1203 virus [9] was “negative”. Besides, the “total IgG, IgG1, and IgG2 levels versus suboptimal dose of VN/1203 alone” value in the assay with VN/1203 [10] is recorded as “the same”. Further, the “concentrations at which EB inhibits virus replication” value with influenza viruses was not below 10 µM.

“RRKKLPAVLLALLAP [SEQ ID NO: 4 peptide, derivative of EB retaining RRKK tag with 5 amino acid residues removed from the N-terminus]”: the weight loss entry with VN/1203 [5] (peptide 200 μM) is on record as “around 20%”. The “score for clinical signs of infection (0-3)” value in the assay on VN/1203 [5] (peptide 200 μM, with boost) was determined as 2.

The values above are taken from US9198965B2 (priority 2008, dated 2015).
